Test results published in ChEMBL document CHEMBL1777793, “Synthesis of biotinylated muramyl tripeptides with NOD2-stimulating activity” (Bioorg Med Chem Lett, 2011).
Activity calls are given as the source filed them. The rule behind the calls is not given here.

The compounds below were run against Nucleotide-binding oligomerization domain-containing protein 2 (Homo sapiens) (UniProt Q9HC29) (assay: Activation of NOD2 expressed in HEK293 cells assessed as increase in IL8 secretion measured at 0.01 to 0.7 uM after 18 hrs by ELISA).
Chain of Nucleotide-binding oligomerization domain-containing protein 2 (Homo sapiens) (Q9HC29 whole entry, the tested form may be a part): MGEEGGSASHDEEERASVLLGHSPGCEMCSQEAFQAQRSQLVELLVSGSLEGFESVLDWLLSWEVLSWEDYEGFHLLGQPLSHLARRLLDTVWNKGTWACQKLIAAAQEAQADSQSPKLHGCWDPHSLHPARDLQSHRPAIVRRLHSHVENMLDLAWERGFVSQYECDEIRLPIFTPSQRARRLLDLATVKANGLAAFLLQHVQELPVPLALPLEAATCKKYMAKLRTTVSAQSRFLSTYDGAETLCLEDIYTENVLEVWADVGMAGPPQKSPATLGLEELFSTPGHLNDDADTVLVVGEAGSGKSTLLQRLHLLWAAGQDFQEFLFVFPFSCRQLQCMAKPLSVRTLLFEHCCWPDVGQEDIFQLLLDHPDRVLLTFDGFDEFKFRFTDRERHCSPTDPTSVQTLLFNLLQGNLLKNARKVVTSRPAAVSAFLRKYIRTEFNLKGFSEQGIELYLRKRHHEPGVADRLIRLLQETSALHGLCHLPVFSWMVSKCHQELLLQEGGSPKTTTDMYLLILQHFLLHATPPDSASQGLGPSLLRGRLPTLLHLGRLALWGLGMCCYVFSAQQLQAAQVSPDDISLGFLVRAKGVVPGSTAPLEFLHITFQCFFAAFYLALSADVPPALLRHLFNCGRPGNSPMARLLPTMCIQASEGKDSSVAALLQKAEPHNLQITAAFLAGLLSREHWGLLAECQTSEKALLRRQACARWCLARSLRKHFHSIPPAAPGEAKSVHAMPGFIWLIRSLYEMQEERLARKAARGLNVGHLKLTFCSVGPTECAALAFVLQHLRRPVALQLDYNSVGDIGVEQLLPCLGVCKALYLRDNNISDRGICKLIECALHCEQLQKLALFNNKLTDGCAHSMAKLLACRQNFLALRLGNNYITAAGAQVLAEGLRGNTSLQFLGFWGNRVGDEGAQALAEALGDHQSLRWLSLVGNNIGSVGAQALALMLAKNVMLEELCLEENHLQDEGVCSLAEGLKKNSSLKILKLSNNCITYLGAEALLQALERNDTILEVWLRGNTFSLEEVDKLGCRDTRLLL
Assay type: cell-based

With `CC(=O)N[C@H]1C(O)O[C@H](CO)[C@@H](O)[C@@H]1O[C@H](C)C(=O)N[C@@H](C)C(=O)N[C@H](CCC(=O)N[C@@H](CCC[C@@H](NC(=O)CCCC[C@@H]1SC[C@@H]2NC(=O)N[C@@H]21)C(=O)O)C(=O)O)C(=O)O` (some centres not stated) as the compound, how does the Activity read?
Its Activity is “inactive”.

For `CC(=O)N[C@H]1[C@@H](OP(=O)(O)OP(=O)(O)OC[C@H]2O[C@@H](n3ccc(=O)[nH]c3=O)[C@H](O)[C@@H]2O)O[C@H](CO)[C@@H](O)[C@@H]1O[C@H](C)C(=O)N[C@@H](C)C(=O)N[C@H](CCC(=O)N[C@@H](CCCCNC(=O)CCCCCNC(=O)CCCCCNC(=O)CCCC[C@@H]1SC[C@@H]2NC(=O)N[C@@H]21)C(=O)O)C(=O)O`, which Activity is on record?
The Activity was “Active”.

Which Activity does the source give for `CC(=O)N[C@H]1C(O)O[C@H](CO)[C@@H](O)[C@@H]1O[C@H](C)C(=O)N[C@@H](C)C(=O)N[C@H](CCC(=O)N[C@@H](CCCCNC(=O)CCCC[C@@H]1SC[C@@H]2NC(=O)N[C@@H]21)C(=O)O)C(=O)O` (some centres not stated) here?
Its Activity is “Active”.

How did the Activity turn out when `CC(=O)N[C@H]1C(O)O[C@H](CO)[C@@H](O)[C@@H]1O[C@H](C)C(=O)N[C@@H](C)C(=O)N[C@H](CCC(=O)N[C@@H](CCCCN)C(=O)O)C(=O)O` (some centres not stated) was run?
The Activity was “Active”.

`CC(=O)N[C@H]1C(O)O[C@H](CO)[C@@H](O)[C@@H]1O[C@H](C)C(=O)N[C@@H](C)C(=O)N[C@H](CCC(=O)N[C@@H](CCCCNC(=O)CCCCCNC(=O)CCCCCNC(=O)CCCC[C@@H]1SC[C@@H]2NC(=O)N[C@@H]21)C(=O)O)C(=O)O` (some centres not stated) was tested. Which Activity did it give?
Its Activity is “Active”.

For `CC(=O)N[C@H]1[C@@H](OP(=O)(O)OP(=O)(O)OC[C@H]2O[C@@H](n3ccc(=O)[nH]c3=O)[C@H](O)[C@@H]2O)O[C@H](CO)[C@@H](O)[C@@H]1O[C@H](C)C(=O)N[C@@H](C)C(=O)N[C@H](CCC(=O)N[C@@H](CCCCN)C(=O)O)C(=O)O`, which Activity is on record?
The Activity was “Active”.

How did the Activity turn out when `CC(=O)N[C@H]1C(O)O[C@H](COC(=O)CCCCCNC(=O)CCCCCNC(=O)CCCCCNC(=O)CCCC[C@@H]2SC[C@@H]3NC(=O)N[C@@H]32)[C@@H](O)[C@@H]1O[C@H](C)C(=O)N[C@@H](C)C(=O)N[C@H](CCC(=O)O)C(N)=O` (some centres not stated) was run?
Its Activity is “Active”.

`CC(=O)N[C@H]1[C@@H](OP(=O)(O)OP(=O)(O)OC[C@H]2O[C@@H](n3ccc(=O)[nH]c3=O)[C@H](O)[C@@H]2O)O[C@H](CO)[C@@H](O)[C@@H]1O[C@H](C)C(=O)N[C@@H](C)C(=O)N[C@H](CCC(=O)N[C@@H](CCC[C@@H](N)C(=O)O)C(=O)O)C(=O)O` was tested. Which Activity did it give?
Its Activity is “Active”.

`CC(=O)N[C@H]1[C@@H](OP(=O)(O)OP(=O)(O)OC[C@H]2O[C@@H](n3ccc(=O)[nH]c3=O)[C@H](O)[C@@H]2O)O[C@H](CO)[C@@H](O)[C@@H]1O[C@H](C)C(=O)N[C@@H](C)C(=O)N[C@H](CCC(=O)N[C@@H](CCC[C@@H](NC(=O)CCCC[C@@H]1SC[C@@H]2NC(=O)N[C@@H]21)C(=O)O)C(=O)O)C(=O)O` was tested. Which Activity did it give?
The Activity was “Active”.

How did the Activity turn out when `CC(=O)N[C@H]1C(O)O[C@H](CO)[C@@H](O)[C@@H]1O[C@H](C)C(=O)N[C@@H](C)C(=O)N[C@H](CCC(=O)N[C@@H](CCC[C@@H](N)C(=O)O)C(=O)O)C(=O)O` (some centres not stated) was run?
Its Activity is “inactive”.

For `CC(=O)N[C@H]1C(O)O[C@H](CO)[C@@H](O)[C@@H]1O[C@H](C)C(=O)N[C@@H](C)C(=O)N[C@H](CCC(=O)O)C(N)=O` (some centres not stated), which Activity is on record?
Its Activity is “Active”.

Which Activity does the source give for `CC(=O)N[C@H]1[C@@H](OP(=O)(O)OP(=O)(O)OC[C@H]2O[C@@H](n3ccc(=O)[nH]c3=O)[C@H](O)[C@@H]2O)O[C@H](CO)[C@@H](O)[C@@H]1O[C@H](C)C(=O)N[C@@H](C)C(=O)N[C@H](CCC(=O)N[C@@H](CCCCNC(=O)CCCC[C@@H]1SC[C@@H]2NC(=O)N[C@@H]21)C(=O)O)C(=O)O` here?
The Activity was “Active”.
